Experimental data reported in article PMC10224441, “Structural Manipulations of Marine Natural Products Inspire a New Library of 3-Amino-1,2,4-Triazine PDK Inhibitors Endowed with Antitumor Activity in Pancreatic Ductal Adenocarcinoma” (Marine Drugs, 2023).
Read-outs that look alike come from different tables or passages of the source.

Tests used:
recombinant human PDK1 = molecular target: T1, recombinant human PDK1 (Homo sapiens, UniProt Q15118); test: PDK1 ADPGlo Kinase Assay; format: biochemical; conditions: for inhibition of PDK1 enzymatic activity: 1.5 µM compound, 30 min, room temperature; for IC50: isolated PDK1 isoform, four-parameter logistic model, mean of 3 independent experiments, read-out: IC50 (µM) ± S.D. PDK1
T1 construct: purchased Abcam
T1 sequence (Q15118 29-436): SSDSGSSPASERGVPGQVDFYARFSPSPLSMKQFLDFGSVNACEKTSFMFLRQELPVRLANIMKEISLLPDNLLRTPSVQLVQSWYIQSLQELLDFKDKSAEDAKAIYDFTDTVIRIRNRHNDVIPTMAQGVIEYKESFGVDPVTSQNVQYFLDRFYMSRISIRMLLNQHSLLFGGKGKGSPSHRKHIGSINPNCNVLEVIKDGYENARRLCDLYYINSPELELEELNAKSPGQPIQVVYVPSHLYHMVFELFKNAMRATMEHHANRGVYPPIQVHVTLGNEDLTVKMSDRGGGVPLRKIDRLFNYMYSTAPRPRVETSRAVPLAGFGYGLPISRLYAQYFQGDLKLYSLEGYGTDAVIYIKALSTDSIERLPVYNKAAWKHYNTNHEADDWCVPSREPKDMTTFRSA
Protocol: The ability of the tested compounds to hamper the activity of PDK1-4 isoforms was firstly evaluated by means of a chemioluminescent assay, the ADPGlo™ Kinase Assay kit (Promega Corporation, Madison, WI, USA).
(§1) The in vitro inhibitory activity of tested compounds on recombinant human PDK1-4 isoforms (Abcam, Cambridge, MA, USA) was evaluated by using the ADPGlo™ Kinase Assay kit from Promega (Promega Corporation, Madison, WI, USA) following the instructions of the manufacturer, as previously described.

recombinant human PDK4 = molecular target: T2, recombinant human PDK4 (Homo sapiens, UniProt Q16654); test: PDK4 ADPGlo Kinase Assay; format: biochemical; conditions: 1.5 µM compound, 30 min, room temperature
T2 construct: purchased Abcam
T2 sequence (Q16654 whole entry): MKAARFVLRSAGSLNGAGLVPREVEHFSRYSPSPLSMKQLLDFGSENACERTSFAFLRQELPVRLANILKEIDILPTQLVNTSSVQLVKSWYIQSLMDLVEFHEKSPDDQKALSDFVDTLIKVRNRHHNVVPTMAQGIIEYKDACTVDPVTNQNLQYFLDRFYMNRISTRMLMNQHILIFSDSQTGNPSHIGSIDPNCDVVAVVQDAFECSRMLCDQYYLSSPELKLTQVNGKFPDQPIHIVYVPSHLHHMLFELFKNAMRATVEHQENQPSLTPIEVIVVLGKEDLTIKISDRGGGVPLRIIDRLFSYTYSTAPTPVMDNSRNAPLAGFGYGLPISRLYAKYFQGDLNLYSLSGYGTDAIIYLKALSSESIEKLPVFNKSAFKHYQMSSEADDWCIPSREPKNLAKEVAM
Protocol: The ability of the tested compounds to hamper the activity of PDK1-4 isoforms was firstly evaluated by means of a chemioluminescent assay, the ADPGlo™ Kinase Assay kit (Promega Corporation, Madison, WI, USA). The results obtained by incubating PDK1-4 isoforms for 30 min at room temperature with 1.5 µM of tested compounds are depicted in Figure 3 panel A as a heat-map summary of the inhibition percentage on PDK1-4 enzymatic activity. All the newly synthesized compounds were able to inhibit the pyruvate dehydrogenase kinases, although to a different extent and showing a preferential activity towards the PDK1 and PDK4 isoforms. […] Conversely, all tested 1,2,4-triazin-3-amines were barely effective in blocking PDK2 activity at 1.5 µM concentration. In addition, IC50 values on the PDK1 isoform were also calculated for all synthesized derivatives and the results are shown in Table 2.
as §1

recombinant human HSP90 = recombinant human HSP90 (Homo sapiens, UniProt P07900); test: HSP90 inhibition assay (Transcreener ADP kit); format: biochemical; conditions: for inhibition of HSP90 enzyme activity: 1.5 µM compound; for IC50: isolated HSP90, four-parameter logistic model, mean of 3 independent experiments, read-out: IC50 (µM) ± S.D. HSP90
Protocol: Since the ATP binding pockets in PDKs and HSP90 are similar and taking into consideration that these 1,2,4-triazine derivatives conserved a chemical scaffold resembling that of the well-known Hsp90 inhibitor Ganetespib, the most performant PDK inhibitors 4d, 4f, 4h, 5d, 5f, 5h and 5j were also screened for their ability to target HSP90.
The in vitro inhibitory activity of tested compounds on recombinant human HSP90 was assessed by The Transcreener™ ADP kit (Bellbrook Labs, Madison, WI, USA) according to the manufacturer’s protocol as previously described.

[1] = system: BxPC-3 cells (KRAS-wild-type PDAC); test: 2D cytotoxicity, MTT assay, BxPC-3; format: cell-based; conditions: Homo sapiens, read-out: IC50 (µM) ± S.D. BxPC-3 (2D)
Protocol: (§2) All newly developed 1,2,4-amino-triazine compounds were screened for their cytotoxic activity against two human PDAC cell lines, namely, a KRAS-wild-type PDAC cell line (BxPC-3 cells) and a KRAS-mutant PDAC cell line (PSN-1 cells). […] The cytotoxicity parameters, expressed in terms of IC50 and obtained after 72 h of drug exposure by MTT assay, are reported in Table 3.
(§3) All tested compounds were dissolved in DMSO just before the experiment, and a calculated amount of drug solution was added to the cell growth medium to a final solvent concentration of 0.5%, which had no detectable effects on cell viability.
(§4) Human pancreatic PSN-1 and BxPC-3 carcinoma cell lines were obtained by American Type Culture Collection (ATCC, Rockville, MD, USA). Cell lines were maintained in the logarithmic phase at 37 °C in a 5% carbon dioxide atmosphere using RPMI-1640 medium (EuroClone) containing 10% fetal calf serum (EuroClone, Milan, Italy), antibiotics (50 units/mL penicillin and 50 μg/mL streptomycin) and 2 mM l-glutamine.
(§5) The growth inhibitory effect on tumor cells was evaluated by means of MTT assay. Briefly, 5 × 10^3 cells/well were seeded in 96-well microplates in a growth medium (100 μL). After 24 h, the medium was removed and replaced with a fresh one containing the compound to be studied at the appropriate concentration. Triplicate cultures were established for each treatment. After 72 h, each well was treated with 10 μL of a 5 mg/mL MTT saline solution, and following 5 h of incubation, 100 μL of a sodium dodecyl sulfate (SDS) solution in HCl 0.01 M was added. After overnight incubation, cell growth inhibition was detected by measuring the absorbance of each well at 570 nm using a Bio-Rad 680 microplate reader. The mean absorbance for each drug dose was expressed as a percentage of the control untreated well absorbance and plotted vs. drug concentration. IC50 values, the drug concentrations that reduce the mean absorbance at 570 nm to 50% of those in the untreated control wells, were calculated by the four-parameter logistic (4-PL) model. The evaluation was based on means from at least four independent experiments.

[2] = system: PSN-1 cells (KRAS-mutant PDAC); test: 2D cytotoxicity, MTT assay, PSN-1; format: cell-based; conditions: Homo sapiens, read-out: IC50 (µM) ± S.D. PSN-1 (2D)
Protocol: as §2, §3, §4, §5

BxPC-3 spheroids = test: 3D spheroid cytotoxicity, acid phosphatase (APH) assay, BxPC-3; format: cell-based; conditions: Homo sapiens, 72 h, acid phosphatase (APH) test, read-out: IC50 (µM) ± S.D. BxPC-3 (3D spheroids)
PSN-1 spheroids = test: 3D spheroid cytotoxicity, acid phosphatase (APH) assay, PSN-1; format: cell-based; conditions: Homo sapiens, PSN1, 72 h, acid phosphatase (APH) test, read-out: IC50 (µM) ± S.D. PSN-1 (3D spheroids)
Protocol: Prompted by these encouraging results, we also screened the newly developed 1,2,4-triazine compounds against 3D spheroids of PDAC KRAS wild-type and mutant cells, to further estimate their anticancer potential in a more predictive environment. […] The PDAC cancer spheroids were treated with tested compounds for 72 h, and cell viability was assessed by means of the acid phosphatase (APH) assay (Table 3). The efficacy of gemcitabine as well as of DCA and DAP was assessed under the same experimental conditions.
Spheroid cultures were obtained by seeding 2.5 × 10^3 PSN-1 cancer cells/well in a round-bottom non-treated tissue culture 96-well plate (Greiner Bio-one, Kremsmünster, Austria) in phenol red-free RPMI-1640 medium (Sigma Chemical Co, St. Louis, MO, USA) containing 10% fetal calf serum and supplemented with 20% methylcellulose stock solution.
An APH-modified assay was used for determining cell viability in 3D spheroids, as previously described. Briefly, the pre-seeded spheroids were treated with fresh medium containing the compound to be studied at the appropriate concentration (range 2.5–200 μM). Triplicate cultures were established for each treatment. After 72 h, each well was treated with 100 μL of the assay buffer (0.1 M sodium acetate, 0.1% Triton-X-100, supplemented with ImmunoPure p-nitrophenyl phosphate; Sigma Chemical Co.) and, following 3 h of incubation, 10 μL of 1 M NaOH solution were added. The inhibition of the cell growth induced by the tested compounds was detected by measuring the absorbance of each well at 405 nm, using a Bio-Rad 680 microplate reader. The mean absorbance for each drug dose was expressed as a percentage of the control untreated well absorbance (T/C) and plotted vs. drug concentration. IC50 values, the drug concentrations that reduce the mean absorbance at 405 nm 50% of those in the untreated control wells, were calculated by the four-parameter logistic (4-PL) model. The evaluation was based on means from at least four independent experiments.

[3] = BXPC-3, 72 h exposure, MTT test, 2D culture
[4] = PSN1, 72 h exposure, MTT test, 2D culture

Compound	inhibition of PDK1 enzymatic activity (recombinant human PDK1)	IC50 (recombinant human PDK1)	inhibition of PDK4 enzymatic activity (recombinant human PDK4)	inhibition of HSP90 enzyme activity (recombinant human HSP90)	IC50 (recombinant human HSP90)	IC50 [1, 3]	IC50 [2, 4]	IC50 (BxPC-3 spheroids)	IC50 (PSN-1 spheroids)	melting point	IC50 ([1]; BXPC-3, 72 h)	IC50 ([2]; PSN1, 72 h)
Cn1cc(-c2nnc(N)nc2-c2cn(C)c3ncc(Br)cc23)c2cc(Br)ccc21 [4d, 6-(5-Bromo-1-methyl-1H-indol-3-yl)-5-(5-bromo-1-methyl-1H-pyrrolo[2,3-b]pyridin-3-yl)-1,2,4-triazin-3-amine]	totally hampered	0.04 ± 0.02 µM	completely suppress	completely abolish	0.06 ± 0.02 µM	30.2 ± 6.2 µM	23.4 ± 3.7 µM	176 ± 15.7 µM	103 ± 9.1 µM	–	–	–
Cn1cc(-c2nnc(N)nc2-c2cn(C)c3ncc(Br)cc23)c2cc(Cl)ccc21 [4f, 5-(5-Bromo-1-methyl-1H-pyrrolo[2,3-b]pyridin-3-yl)-6-(5-chloro-1-methyl-1H-indol-3-yl)-1,2,4-triazin-3-amine]	totally hampered	0.12 ± 0.04 µM	–	completely abolish	0.1 ± 0.03 µM	18.4 ± 1.4 µM	11.3 ± 1.8 µM	169 ± 12.4 µM	162 ± 6.8 µM	262.1 °C	–	–
Cn1cc(-c2nnc(N)nc2-c2cn(C)c3ncc(Br)cc23)c2cc(F)ccc21 [4h, 5-(5-Bromo-1-methyl-1H-pyrrolo[2,3-b]pyridin-3-yl)-6-(5-fluoro-1-methyl-1H-indol-3-yl)-1,2,4-triazin-3-amine]	totally hampered	0.06 ± 0.02 µM	–	completely abolish	–	22.3 ± 2.4 µM	17.5 ± 2.8 µM	188 ± 14.4 µM	77.8 ± 3.8 µM	155.6 °C	–	–
Cn1cc(-c2nc(N)nnc2-c2cn(C)c3ncc(Br)cc23)c2cc(Br)ccc21 [5d, 5-(5-Bromo-1-methyl-1H-indol-3-yl)-6-(5-bromo-1-methyl-1H-pyrrolo[2,3-b]pyridin-3-yl)-1,2,4-triazin-3-amine]	totally hampered	0.05 ± 0.02 µM	completely suppress	completely abolish	0.07 ± 0.01 µM	26.7 ± 6.1 µM	21.3 ± 3.5 µM	198 ± 14.2 µM	216 ± 13.6 µM	333.7 °C	–	–
Cn1cc(-c2nc(N)nnc2-c2cn(C)c3ncc(Br)cc23)c2cc(Cl)ccc21 [5f, 6-(5-Bromo-1-methyl-1H-pyrrolo[2,3-b]pyridin-3-yl)-5-(5-chloro-1-methyl-1H-indol-3-yl)-1,2,4-triazin-3-amine]	totally hampered	0.08 ± 0.02 µM	completely suppress	completely abolish	0.11 ± 0.04 µM	22.4 ± 3.2 µM	21.3 ± 4.4 µM	229 ± 17.2 µM	213 ± 14.4 µM	334.6 °C	–	–
Cn1cc(-c2nc(N)nnc2-c2cn(C)c3ncc(Br)cc23)c2cc(F)ccc21 [5h, 6-(5-Bromo-1-methyl-1H-pyrrolo[2,3-b]pyridin-3-yl)-5-(5-fluoro-1-methyl-1H-indol-3-yl)-1,2,4-triazin-3-amine]	totally hampered	0.05 ± 0.03 µM	completely suppress	completely abolish	0.09 ± 0.03 µM	0.05 ± 0.03 µM	27.4 ± 5.1 µM	208 ± 12.7 µM	132 ± 5.9 µM	311.1 °C	–	–
COc1ccc2c(c1)c(-c1nc(N)nnc1-c1cn(C)c3ncccc13)cn2C [5i, 5-(5-Methoxy-1-methyl-1H-indol-3-yl)-6-(1-methyl-1H-pyrrolo[2,3-b]pyridin-3-yl)-1,2,4-triazin-3-amine]	–	0.31 ± 0.07 µM	–	–	–	0.31 ± 0.07 µM	14.9 ± 3.2 µM	153 ± 10.3 µM	112 ± 9.1 µM	288.2 °C	–	–
O=C(c1ccccc1)C(Cl)Cl [DAP, 2,2-dichloroacetophenone, reference compound]	–	212 ± 48 µM	–	–	698 ± 83 µM	–	–	78.2 ± 6.2 µM	87.4 ± 8.9 µM	–	16.5 ± 0.9 µM	10.2 ± 1.6 µM
